The source of these data is article PMC11280065, “^64Cu^2+ Complexes of Tripodal Amine Ligands’ In Vivo Tumor and Liver Uptakes and Intracellular Cu Distribution in the Extrahepatic Bile Duct Carcinoma Cell Line TFK-1: A Basic Comparative Study” (Pharmaceuticals, 2024).

Data set [1] has as its system TFK-1 cells. Nature of the data set: Micro-PIXE analysis of intracellular Cu distribution. The following applies: compared among the three Cu2+ complexes and Cu2+ ions, no significant differences. The format is cell-based, human. The text has this: A positive correlation was observed between in vitro whole-cell uptake and in vivo tumor uptake (R = 0.992, p = 0.00772) (Figure S2). Similarly, we observed a consistent correlation between in vitro nuclear uptake and in vivo tumor uptake (417.6 counts ± 150.02 for Cu^2+-Tren, 203.00 counts ± 25.13 for Cu^2+-Dien, 94.82 counts ± 48.07 for Cu^2+-TPMA, and 35.57 counts ± 25.02 for Cu^2+ ions) (p < 0.05).
The human extrahepatic bile duct carcinoma cell line TFK-1 was obtained from the RIKEN Bioresource Research Center (Ibaraki, Japan) and immediately expanded and frozen in our laboratory. […] Exponentially growing cells were detached from plates using trypsin (0.5 w/v% Trypsin-5.3 mmol/L EDTA·4Na Solution without Phenol Red (×10), Fujifilm Wako Pure Chemical Corporation, Osaka, Japan), and the number of viable cells was determined using the trypan blue dye (Bio-Rad, Hercules CA, USA) exclusion method.
A micro-PIXE analysis was carried out at the QST Electrostatic Accelerator Facility. […] Cells were subsequently stained with DAPI (4′,6-diamidino-2-phenylindole; Bio-Rad, Hercules, CA, USA) for nuclear localization and observed under a fluorescence microscope (BZ-X810, Keyence, Osaka, Japan). […] Distributions of Cu, P, K, Ca, Al, Fe, and S in each group were determined using Kα lines. […] Nuclei localization was determined via fluorescence microscope images of DAPI staining. […]

For data set [2], the system named is mice bearing TFK-1-RFP cells. The conditions noted are these: mean ± SD.

`NCCN(CCN)CCN.[Cl-].[Cl-].[Cu+2]` [Cu^2+-Tren]: the “percentage counts of nuclear uptake/whole-cell uptake” value in data set [1] is recorded as “highest average value”. Turning to `[Cl-].[Cl-].[Cu+2].c1ccc(CN(Cc2ccccn2)Cc2ccccn2)nc1` [Cu^2+-TPMA], the tumor uptake in data set [2] (TFK-1-RFP-xenografted SCID beige mice, 2.5 h after intravenous injection of 1.85 MBq, n = 3–4/group) stood at 7.56 ± 0.41 %ID/g.

With `NCCNCCN.[Cl-].[Cl-].[Cu+2]` [Cu^2+-Dien], the urinary excretion in data set [2] (urine collected during the 2.5 h post-administration, intravenous, TFK-1-RFP-xenografted mice) turned out to be 1.68 ± 0.46 %ID.
